Assay results published in patent publication US7345083B2, “Hydroisoindoline tachykinin receptor antagonists” (Merck & Co., Inc., priority 2004, dated 2008).

C[C@@H](O[C@H]1CC[C@@H]2CN(C3=CC(=O)CC3)C[C@H]2[C@@H]1c1ccc(F)cc1)c1cc(C(F)(F)F)cc(C(F)(F)F)c1 [Example 7, 3-[(3aR,4R,5S,7aS)-5-{(1R)-1-[3,5-bis(Trifluoromethyl)phenyl]ethoxy}-4-(4-fluorophenyl)-octahydro-2H-isoindol-2-yl]cyclopent-2-en-1-one]
melting point: 216.5 to 217.5 °C
